Species: Rattus norvegicus
Assay: Open TG-GATES - Regimen: Single
Format: toxicity, organism-based, Sprague-Dawley
Parameters: regimen Single, gender Male, age 6 weeks
Settings: in vivo, po, 0 mg/kg, route gavage, dose level Control; for APTT / Bas / Eos / Fbg / Hb / Ht / Lym / MCHC / MCV / Mono / Neu / PT / Plat / RBC / Ret / WBC: tissue Blood; for KIDNEY_L / KIDNEY_R / KIDNEY_TOTAL: tissue Kidney; for LIVER: tissue Liver; for ALP / ALT / AST / BUN / CRE / Ca / Cl / DBIL / GLC / IP / K / LDH / Na / PL / RALB / TBIL / TC / TG / TP / gamma-GTP: tissue Plasma

SMILES: CS(=O)(=O)Nc1ccc([N+](=O)[O-])cc1Oc1ccccc1 [NIMESULIDE]
- TERMINAL_BW (3 h): 201.3 g
- APTT (3 h): 17.1 s
- Bas (3 h): 0%
- Eos (3 h): 1.4%
- Fbg (3 h): 212 mg/dL
- Hb (3 h): 14.1 g/dL
- Ht (3 h): 41.1%
- Lym (3 h): 77%
- MCHC (3 h): 34.3%
- MCV (3 h): 64.2 fL
- Mono (3 h): 6.2%
- Neu (3 h): 15.6%
- PT (3 h): 12.4 s
- Plat (3 h): 118.2 x10_4/uL
- RBC (3 h): 640.8 x10_4/ul
- Ret (3 h): 10.6%
- WBC (3 h): 89.8 x10_2/uL
- KIDNEY_L (3 h): 0.9 g
- KIDNEY_R (3 h): 0.9 g
- KIDNEY_TOTAL (3 h): 1.9 g
- LIVER (3 h): 9.7 g
- ALP (3 h): 917.4 IU/L
- ALT (3 h): 37.4 IU/L
- AST (3 h): 63.4 IU/L
- BUN (3 h): 12.4 mg/dL
- CRE (3 h): 0.5 mg/dL
- Ca (3 h): 11 mg/dL
- Cl (3 h): 105.4 meq/L
- DBIL (3 h): 0.048 mg/dL
- GLC (3 h): 197.2 mg/dL
- IP (3 h): 9.6 mg/dL
- K (3 h): 4.8 meq/L
- LDH (3 h): 65.8 IU/L
- Na (3 h): 141.8 meq/L
- PL (3 h): 133.6 mg/dL
- RALB (3 h): 3.7 g/dL
- TBIL (3 h): 0.3 mg/dL
- TC (3 h): 75 mg/dL
- TG (3 h): 57.4 mg/dL
- TP (3 h): 5.3 g/dL
- gamma-GTP (3 h): 1.6 IU/L
- TERMINAL_BW (6 h): 196.6 g
- APTT (6 h): 17.7 s
- Bas (6 h): 0%
- Eos (6 h): 1%
- Fbg (6 h): 209.6 mg/dL
- Hb (6 h): 13.6 g/dL
- Ht (6 h): 40.3%
- Lym (6 h): 72.6%
- MCHC (6 h): 33.7%
- MCV (6 h): 65.3 fL
- Mono (6 h): 7.8%
- Neu (6 h): 19%
- PT (6 h): 12.5 s
- Plat (6 h): 116.9 x10_4/uL
- RBC (6 h): 617.4 x10_4/ul
- Ret (6 h): 11.4%
- WBC (6 h): 109.3 x10_2/uL
- KIDNEY_L (6 h): 0.8 g
- KIDNEY_R (6 h): 0.9 g
- KIDNEY_TOTAL (6 h): 1.7 g
- LIVER (6 h): 8.5 g
- ALP (6 h): 832.8 IU/L
- ALT (6 h): 35.8 IU/L
- AST (6 h): 63.2 IU/L
- BUN (6 h): 12.4 mg/dL
- CRE (6 h): 0.6 mg/dL
- Ca (6 h): 10.7 mg/dL
- Cl (6 h): 105.6 meq/L
- DBIL (6 h): 0.062 mg/dL
- GLC (6 h): 188 mg/dL
- IP (6 h): 10.2 mg/dL
- K (6 h): 4.9 meq/L
- LDH (6 h): 62.6 IU/L
- Na (6 h): 140.4 meq/L
- PL (6 h): 139.6 mg/dL
- RALB (6 h): 3.7 g/dL
- TBIL (6 h): 0.4 mg/dL
- TC (6 h): 83.2 mg/dL
- TG (6 h): 52.8 mg/dL
- TP (6 h): 5.2 g/dL
- gamma-GTP (6 h): 2 IU/L
- TERMINAL_BW (9 h): 196.3 g
- APTT (9 h): 17.5 s
- Bas (9 h): 0%
- Eos (9 h): 1%
- Fbg (9 h): 204.8 mg/dL
- Hb (9 h): 13.4 g/dL
- Ht (9 h): 39.5%
- Lym (9 h): 71.6%
- MCHC (9 h): 33.9%
- MCV (9 h): 64.3 fL
- Mono (9 h): 9%
- Neu (9 h): 18.6%
- PT (9 h): 12.4 s
- Plat (9 h): 110.8 x10_4/uL
- RBC (9 h): 614 x10_4/ul
- Ret (9 h): 10.8%
- WBC (9 h): 94 x10_2/uL
- KIDNEY_L (9 h): 0.9 g
- KIDNEY_R (9 h): 1 g
- KIDNEY_TOTAL (9 h): 1.9 g
- LIVER (9 h): 8.3 g
- ALP (9 h): 898.6 IU/L
- ALT (9 h): 31.4 IU/L
- AST (9 h): 59.8 IU/L
- BUN (9 h): 12.4 mg/dL
- CRE (9 h): 0.5 mg/dL
- Ca (9 h): 10.6 mg/dL
- Cl (9 h): 106 meq/L
- DBIL (9 h): 0.028 mg/dL
- GLC (9 h): 193.6 mg/dL
- IP (9 h): 10.3 mg/dL
- K (9 h): 5 meq/L
- LDH (9 h): 79.2 IU/L
- Na (9 h): 138.4 meq/L
- PL (9 h): 128.4 mg/dL
- RALB (9 h): 4 g/dL
- TBIL (9 h): 0.3 mg/dL
- TC (9 h): 70.8 mg/dL
- TG (9 h): 47.6 mg/dL
- TP (9 h): 5.3 g/dL
- gamma-GTP (9 h): 1.2 IU/L
- TERMINAL_BW (24 h): 217.2 g
- APTT (24 h): 16.3 s
- Bas (24 h): 0%
- Eos (24 h): 1%
- Fbg (24 h): 201 mg/dL
- Hb (24 h): 13.1 g/dL
- Ht (24 h): 38.9%
- Lym (24 h): 71.6%
- MCHC (24 h): 33.7%
- MCV (24 h): 66 fL
- Mono (24 h): 10.8%
- Neu (24 h): 16.6%
- PT (24 h): 11.7 s
- Plat (24 h): 118.1 x10_4/uL
- RBC (24 h): 590.2 x10_4/ul
- Ret (24 h): 10.9%
- WBC (24 h): 107.9 x10_2/uL
- KIDNEY_L (24 h): 1 g
- KIDNEY_R (24 h): 1 g
- KIDNEY_TOTAL (24 h): 1.9 g
- LIVER (24 h): 10.4 g
- ALP (24 h): 1023 IU/L
- ALT (24 h): 35 IU/L
- AST (24 h): 62.8 IU/L
- BUN (24 h): 18.4 mg/dL
- CRE (24 h): 0.5 mg/dL
- Ca (24 h): 10.7 mg/dL
- Cl (24 h): 104.4 meq/L
- DBIL (24 h): 0.012 mg/dL
- GLC (24 h): 190.4 mg/dL
- IP (24 h): 7.8 mg/dL
- K (24 h): 4.9 meq/L
- LDH (24 h): 81.4 IU/L
- Na (24 h): 139.6 meq/L
- PL (24 h): 150.8 mg/dL
- RALB (24 h): 4.1 g/dL
- TBIL (24 h): 0.3 mg/dL
- TC (24 h): 79.8 mg/dL
- TG (24 h): 86.8 mg/dL
- TP (24 h): 5.5 g/dL
- gamma-GTP (24 h): 1.8 IU/L
